Results as given in patent publication US20090176762A1, “JNK Inhibitors for Treatment of Skin Diseases” (LABORATOIRES SERONO SA, priority 2006, published 2009).

System: DNFB-induced ear swelling
Experiment: Contact hypersensitivity model in mice (CHS), DNFB-induced ear swelling
Type: in vivo
Settings: 30 mg/kg p.o., 30 minutes before challenge; DNFB-sensitized Balb/C mice; p<0.05 vs sensitized; FIG. 4
Experimental: Balb/C female mice of about 8-12 weeks of age (18-22 g b.w.) were used for the Contact Hypersensitivity model. They were from Charles River Italia (Calco, Italy) and housed under the following constant environmental conditions: temperature 22° C.±2, relative humidity 55%±10, 15-20 air changes per hour (filtered on HEPA 99.99%) and artificial light with a 12-hour circadian cycle (7 a.m.-7 p.m.). All in vivo studies were performed according to the European Council Directive 86/609/EEC and the Italian Ministry guidelines for the care and use of experimental animals (decree #116/92). All the experimental protocols were authorized by the Italian Ministry of Health.
All chemicals were purchased from Sigma-Aldrich (St. Louis, Mo., USA) unless otherwise specified. […]
For the induction of CHS, 8-12 weeks old Balb/C mice, were sensitized by applying once a sensitizing solution of 35 μl of 0.5% DNFB in acetone/olive oil (4:1) on the shaved back. […] Ear thickness was monitored using a caliper at day 0, at day 5 (4 h, 8 h), at day 6 (24 h) and at day 7 (48 h). […] Ear thickness of both ears was measured at three point each, ear swelling was evaluated according to the following formula: […]
All values in the text and figures are presented as mean±SEM of (n) independent experiments. All data were analysed by one-way ANOVA followed by Tukey test. […]

N#CC(c1ccnc(OCc2ccc(CN3CCOCC3)cc2)n1)c1nc2ccccc2s1 (stereo not shown) [JNK inhibitor, 1,3-benzothiazol-2-yl(2-{[4-(morpholin-4-ylmethyl)benzyl]oxy}pyrimidin-4-yl)acetonitrile]
ear swelling: significantly reduced ear swelling
